# Experimental data published in patent US10251838B2, “Stereospecific lipids for locoregional therapy with long-term circulating stimuli-sensitive nanocarrier systems” (THERMOSOME GmbH, priority 2013, dated 2019).
# Assays:
# [1] = Phase transition temperatures (TM) of phospholipids; assay type: physicochemical; details: for TM (phase transition temperature): phosphatidylcholine/phosphatidyldiglycerol/phosphatidyltriglycerol/phosphatidyltetraglycerol with the given fatty acid pattern; for main (phase) transition temperature: pure lipid
# Procedure: By selecting a phosphatidylcholine having a suitable main transition temperature, the stimuli-sensitive nanocarrier system, in particular the thermosensitive liposome, can be customised. Table 1 gives main transition temperatures (TM) of phosphatidylcholines whose main transition temperatures are in the range of from 0 to 80° C.
# The fatty acid chains and their distribution over positions 1 and 2 of the glycerol molecule dominate the physical properties of the phospholipids. The phase transition temperature is independent of whether the phospholipid is the phosphatidylcholine, the phosphatidyldiglycerol, the phosphatidyltriglycerol or the phosphatidyltetraglycerol.
# [2] = Stability and circulation of liposomes in serum / bloodstream (animal experiments); assay type: in vivo; details: lipid alone in liposomes
# Procedure: By using phosphatidyloligoglycerols, it has been possible to prepare thermosensitive liposomes having a prolonged blood circulation time (WO 2002/064116 and WO 2004/026282). […] The majority of the liposomes remain in the blood circulation over a period of 2 hours and are therefore available for heat-controlled release of the active ingredient. Owing to the rapid release-kinetics of these liposomes with heat-induced release of the active ingredient within a few seconds, preferably <15 seconds, more preferably <10 seconds, a previously enclosed active ingredient can be released immediately by targeted heating of the liposomes to temperatures >39° C., preferably 40-42° C.
# The main transition temperature for (1,2-dipalmitoyl)-phosphatidylcholine is approximately 41° C. The purely physical requirements for clinical use in liposomes can accordingly be fulfilled by this phosphatidylcholine. However, the serum stability in the bloodstream of humans and animals that is required for clinical applications is lacking. (1,2-Dipalmitoyl)phosphatidylcholine alone is therefore not sufficient to achieve the therapeutic aims. […]
# Enclosed active ingredients are only released when the temperature is increased locally to about 42° C. […]
# [3] = tissue depth of 2000-3000 μm; cited from earlier work
TM (phase transition temperature) [1] [°C],SMILES,further results
41,"CCCCCCCCCCCCCCCC(=O)OCC(COP(=O)([O-])OCC[N+](C)(C)C)OC(=O)CCCCCCCCCCCCCCC (stereo not drawn) [1,2-dipalmitoyl-, 1,2-dipalmitoylglycero-3-phosphocholine]","main (phase) transition temperature ([1]; listed as (1,2-dipalmitoyl)-phosphatidylcholine): approximately 41 °C; main (phase) transition temperature ([1]; listed as dipalmitoyl-phosphatidylcholine): 41 °C; serum stability in the bloodstream of humans and animals [2]: lacking"
7,"CCCCCCCC/C=C\CCCCCCCC(=O)O[C@H](COC(=O)CCCCCCCCCCCCCCCCC)COP(=O)([O-])OCC[N+](C)(C)C [1-stearoyl-2-oleoyl-, 1-stearoyl-2-oleoyl-3-phosphocholine]",–
66,"CCCCCCCCCCCCCCCCCCCC(=O)OC[C@H](COP(=O)([O-])OCC[N+](C)(C)C)OC(=O)CCCCCCCCCCCCCCCCCCC [1,2-diarachinoyl-, 1,2-diarachinoylglycero-3-phosphocholine]",–
33,"CCCCCCCCCCCCCCCCCC(=O)OCC(COP(=O)([O-])OCC[N+](C)(C)C)OC(=O)CCCCCCCCCCCCC (stereo not drawn) [1-stearoyl-2-myristoyl-, 1-stearoyl-2-myristoylglycero-3-phosphocholine]",–
53,"CCCCCCCCCCCCCCCCCC(=O)OCC(COC(=O)CCCCCCCCCCCCCCCCC)OP(=O)([O-])OCC[N+](C)(C)C [1,3-distearoyl-, 1,3-distearoylglycero-2-phosphocholine]",–
80,"CCCCCCCCCCCCCCCCCCCCCCCC(=O)OCC(COP(=O)([O-])OCC[N+](C)(C)C)OC(=O)CCCCCCCCCCCCCCCCCCCCCCC (stereo not drawn) [1,2-dilignoceroyl-, 1,2-dilignoceroylglycero-3-phosphocholine]",–
19,"CCCCCCCCCCCCCC(=O)OCC(COC(=O)CCCCCCCCCCCCC)OP(=O)([O-])OCC[N+](C)(C)C [1,3-dimyristoyl-, 1,3-dimyristoylglycero-2-phosphocholine]",–
23,"CCCCCCCCCCCCCC(=O)OCC(COP(=O)([O-])OCC[N+](C)(C)C)OC(=O)CCCCCCCCCCCCC (stereo not drawn) [1,2-dimyristoyl-, 1,2-dimyristoylglycero-3-phosphocholine]",main (phase) transition temperature [1]: 23 °C
52,"CCCCCCCCCCCCCCCCCC(=O)OC(COC(=O)CCCCCCCCCCCCCCC)COP(=O)([O-])OCC[N+](C)(C)C (stereo not drawn) [1-palmitoyl-2-stearoyl-, 1-palmitoyl-2-stearoylglycero-3-phosphocholine]",–
56,"CCCCCCCCCCCCCCCCCC(=O)OCC(COP(=O)([O-])OCC[N+](C)(C)C)OC(=O)CCCCCCCCCCCCCCCCC (stereo not drawn) [1,2-distearoyl-, 1,2-distearoylglycero-3-phosphocholine]",main (phase) transition temperature [1]: 56 °C
37,"CCCCCCCCCCCCCCCC(=O)OC(COC(=O)CCCCCCCCCCCCC)COP(=O)([O-])OCC[N+](C)(C)C (stereo not drawn) [1-myristoyl-2-palmitoyl-, 1-myristoyl-2-palmitoylglycero-3-phosphocholine]",–
14,"CCCCCCCC/C=C\CCCCCCCC(=O)OC(COC(=O)CCCCCCCCCCCCCCCCCCCCC)COP(=O)([O-])OCC[N+](C)(C)C (stereo not drawn) [1-behenoyl-2-oleoyl-, 1-behenoyl-2-oleoylglycero-3-phosphocholine]",–
27,"CCCCCCCCCCCCCCCC(=O)OCC(COP(=O)([O-])OCC[N+](C)(C)C)OC(=O)CCCCCCCCCCCCC (stereo not drawn) [1-palmitoyl-2-myristoyl-, 1-palmitoyl-2-myristoylglycero-3-phosphocholine]",–
–,CO[C@@]12[C@H](COC(N)=O)C3=C(C(=O)C(C)=C(N)C3=O)N1C[C@@H]1N[C@@H]12 [mitomycin C],dogs in which no further mitomycin C was detectable [3]: 18/24
39,"CCCCCCCCCCCCCCCC(=O)OCC(COC(=O)CCCCCCCCCCCCCCC)OP(=O)([O-])OCC[N+](C)(C)C [1,3-dipalmitoyl-, 1,3-palmitoylglycero-2-phosphocholine]",–
46,"CCCCCCCCCCCCCCCCCC(=O)OCC(COC(=O)CCCCCCCCCCCCC)OP(=O)([O-])OCC[N+](C)(C)C (stereo not drawn) [1-stearoyl-3-myristoyl-, 1-stearoyl-3-myristoylglycero-2-phosphocholine]",–
17,"CCCCCCCCCCCCCCCCCC(=O)OCC(COP(=O)([O-])OCC[N+](C)(C)C)OC(=O)CCCCCCCCCCC (stereo not drawn) [1-stearoyl-2-lauroyl-, 1-stearoyl-2-lauroylglycero-3-phosphocholine]",–
5,"CCCCCCCC/C=C\CCCCCCCC(=O)OC(COC(=O)CCCCCCCCCCCCCCC)COP(=O)([O-])OCC[N+](C)(C)C (stereo not drawn) [1-palmitoyl-2-oleoyl-, 1-palmitoyl-2-oleoylglycero-3-phosphocholine]",–
48,"CCCCCCCCCCCCCCCCCC(=O)OCC(COP(=O)([O-])OCC[N+](C)(C)C)OC(=O)CCCCCCCCCCCCCCC (stereo not drawn) [1-stearoyl-2-palmitoyl-, 1-stearoyl-2-palmitoylglycero-3-phosphocholine]",–
42,"CCCCCCCCCCCCCCCCCC(=O)OC(COC(=O)CCCCCCCCCCCCC)COP(=O)([O-])OCC[N+](C)(C)C (stereo not drawn) [1-myristoyl-2-stearoyl-, 1-myristoyl-2-stearoylglycero-3-phosphocholine]",–
75,"CCCCCCCCCCCCCCCCCCCCCC(=O)OCC(COP(=O)([O-])OCC[N+](C)(C)C)OC(=O)CCCCCCCCCCCCCCCCCCCCC (stereo not drawn) [1,2-dibehenoyl-, 1,2-dibehenoylglycero-3-phosphocholine]",–
11,"CCCCCCCCCCCCCCCC(=O)OCC(COP(=O)([O-])OCC[N+](C)(C)C)OC(=O)CCCCCCCCCCC (stereo not drawn) [1-palmitoyl-2-lauroyl-, 1-palmitoyl-2-lauroylglycero-3-phosphocholine]",–
